In patent publication US10568925B2, “Extracts of Curcuma amada and uses thereof” (DHARMA BIOMEDICAL, LLC, priority 2015, dated 2020):
Read-outs that look alike come from different tables or passages of the source.

What was measured:
[1] = tested on: U-87MG human glioblastoma cell line; test: MTT cytotoxicity in U-87MG glioblastoma cells; format: cell-based; conditions: 72 hours
Protocol: Human glioblastoma cell line (U-87MG) was purchased from American Type Culture Collection, Manassas, Va. and the cells were grown in RPMI medium supplemented with 10% fetal bovine serum (FBS) and antibiotics in a humidified 5% CO2 incubator maintained at 37° C. The normal mouse embryonic hypothalamus cell line (mHypoE-N1) was purchased from CELLutions Biosystems, Inc, Burlington, Ontario, Canada and was grown in DMEM, supplemented with 10% FBS and antibiotics in the CO2 incubator.
Glioblastoma (U-87MG) cells were treated with increasing concentrations of CA, temozolomide, etoposide or their combination for 72 hours in 96-well plates. MTT [3-(4,5-Dimethyl thiazol-2-yl)-2,5-diphenyltetrazolium bromide] assay performed with the Cell Proliferation Kit I (Roche Biochemicals, IN) was used to analyze cytotoxicity of individual drugs/extracts and their combinations. The experiments were repeated four times with three replications for each treatment and the IC50, IC75 and IC90 values were calculated (Ramachandran et al. 2010; Ramachandran et al. 2012). The relative cytotoxicity of CA in normal mouse hypothalamus cell line (mHypoE-N1) was also analyzed to compare the toxicity and specificity of CA in normal and brain tumor cells.
Mean inhibitory concentrations (ICs) and standard deviation estimates were calculated using Microsoft Excel software using data from three separate experiments. The fraction of surviving cells at each concentration of drugs/combinations was used for the analysis of synergism/additiveness/antagonism between drugs/extracts by the CompuSyn software (ComboSyn, Inc., Paramus, N.J.).

RD cell line = test: RT-PCR gene expression, RD; format: cell-based, human; conditions: 72 h
Protocol: (§1) FIGS. 20A-20B: Gene expression analysis of apoptotic genes (p53, Bcl-2, Bax and Bak) by RT-PCR in eRMS RD (FIG. 20A) and aRMS SJRH30 (FIG. 20B) cells treated with VBL, CP, CA and their combinations. Total RNA was extracted from cells treated with drugs and their combinations for 72 h and RT-PCR assay performed with 5 μg of RNA using gene specific primers. The house keeping gene GAPDH is also amplified as control.
(§2) mRNA expression of apoptosis-associated genes (Bax, Bcl-2, Bak and p53) and inflammation-associated genes (Cox-2, NF-κB and STATS) were analyzed by reverse transcriptase-polymerase chain reaction (Ramachandran et al. 2012). The expression of a house keeping gene, Glyceraldehyde 3-phosphate dehydrogenase (GAPDH) was used as a control. The relative expression of genes was quantified using gel pictures by the UNSCAN-IT GEL′ software (Silk Scientific, Inc., Orem, Utah). Since the ratios of Bax/Bcl-2, Bak/Bcl-2 and Bax/Bak expression were very much associated with the fate of cells undergoing apoptosis, these estimates were calculated and plotted against drug concentrations (Ramachandran et al. 2012).

[2] = tested on: alveolar (SJRH30) rhabdomyosarcoma cell line; test: MTT cytotoxicity in alveolar rhabdomyosarcoma cells; format: cell-based, human; conditions: for IC50 / IC90: Homo sapiens
Protocol: (§3) Both aRMS (SJRH30) and eRMS (RD) cell lines were purchased from American Type Culture Collection, Manassas, Va. SJRH30 and RD cells were grown in Rosewell Park Memorial Institute 1640 (RPMI 1640) and Dulbecco's Modified Eagle's medium (DMEM), respectively, supplemented with 10% FBS and antibiotics in a 5% CO2 incubator.
(§4) Rhabdomyosarcoma cells were treated with increasing concentrations of drugs and/or extracts for 72 hours in 96-well plates. MTT assay performed with the Cell Proliferation kit I (Roche Biochemicals, IN) was used to analyze cytotoxicity of individual drugs, extracts and their combinations (Ramachandran et al. 2012).
(§5) Mean inhibitory concentrations (ICs) and standard deviation estimates were calculated using Microsoft Excel software. The fraction of surviving cells at each concentration of drugs/combinations was used for the analysis of synergism/additiveness/antagonism between drugs/extracts by the CompuSyn software (ComboSyn, Inc., Paramus, N.J.). Synergism was evaluated by the Combination Index (CI) method of Chou and Talalay (1983) which is based on the median-effect principle. The CIs were calculated by the Chou-Talalay equations for multiple drug effects which take into account both potency (IC values) and shape (slope, m) of dose-effect curve (Ramachandran et al. 2010).

[3] = tested on: aRMS (SJRH30) nude mice xenografts; test: Rhabdomyosarcoma xenograft study; format: in vivo
Protocol: Male athymic nude (nu/nu) mice of the NCrNUstrain (4 weeks old weighing 18-22 g) were purchased from Taconic Labs, German Town, N.Y. Tissue cultured SJRH30 aRMS cells (10^7 cells/site) in 0.1 ml of Hank's balanced salt solution were injected subcutaneously into the left and right flank of the nude mice with a 21-guage needle. When the tumors measured 0.5 cm^3, therapy was started with 20 mice in each group. Treatment groups included control (saline), 2 mg/kg VBL, 10 mg/kg CA and 2 mg/kg VBL+10 mg/kg CA. VBL was dissolved in saline and administered intraperitoneally on alternate days for a total of 10 injections starting on the first day of tumor measurement and treatment. CA was initially dissolved in ethanol and diluted in water so as to make 0.1% alcohol in it and given as drinking water for the entire duration of the study. Tumor size (length×width), body weight and survival data were collected twice a week. Tumor measurements were recorded using a vernier caliper and tumor volume and tumor growth rates were calculated according to the formula described earlier (Ramachandran et al. 2003; 2006). Tumor growth rate data was analyzed by one-way analysis of variance (ANOVA) with Dunnett's multiple comparison test. Survival data was analyzed with Kaplan Meier statistics using Graphpad Prism software and significant differences among treatment groups were calculated.

[4] = tested on: embryonal (RD) rhabdomyosarcoma cell line; test: MTT cytotoxicity in embryonal rhabdomyosarcoma cells; format: cell-based, human; conditions: for IC50 / IC90: Homo sapiens, Rhabdomyosarcoma cell
Protocol: as §3, §4, §5

SJRH30 cell line = test: RT-PCR gene expression, SJRH30; format: cell-based, human; conditions: SJRH30, 72 h
Protocol: as §1, §2

[5] = tested on: U-87MG nude mice xenografts; test: Glioblastoma xenograft study; format: in vivo; conditions: vs olive oil control; IR 50 mg/kg intraperitoneally, CA (50/mg) gavage; p<0.05
Protocol: FIG. 16: Inhibition of tumor growth rate in U-87MG xenografts treated with olive oil (control), irinotecan (IR), CA, and IR+CA in combination. Xenografts (n=15/group) were administered intraperitoneally with olive oil (control) or IR (50 mg/kg), whereas CA (50/mg) was given gavage (introduction directly to the stomach). Tumor measurements are recorded twice per week and mean±SD estimates of tumor growth rate are plotted against days after treatment (*p<0.05; **p<0.01, ***p<0.001 as compared to control).
FIG. 17: Kaplan-Meier survival curve analysis of glioblastoma (U-87MG) nude mice xenografts treated with olive oil control, IR, CA, and IR+CA. The difference between treatment groups are significant (*p<0.05).

Compound | IC75 [1] [µg/mL] | IC50 ([1]; Homo sapiens) [µg/mL] | IC90 ([1]; Homo sapiens, read-out: IC90) [µg/mL] | expression of Bcl-2 (RD cell line) | expression of p53, Bax and Bak (RD cell line) | IC75 ([2]; SJRH30, 72 hours, MTT) [µg/mL] | IC75 ([4]; RD, 72 hours, MTT) [µg/mL] | expression of Bcl-2 (SJRH30 cell line) | expression of p53, Bax and Bak (SJRH30 cell line) | further results
COc1cc(/C=C/C(=O)CC(=O)/C=C/c2ccc(O)c(OC)c2)ccc1O [CUR, curcumin] | 51.00 ± 7.07 | 37.3 ± 4.04 | > 200 | – | – | – | – | – | – | IC90 [1]: >200 µg/mL; IC75 ([1]; listed as curcumin): 51.00 ± 7.07 µg/mL
COc1cc([C@@H]2c3cc4c(cc3[C@@H](O[C@@H]3O[C@@H]5CO[C@@H](C)O[C@H]5[C@H](O)[C@H]3O)[C@H]3COC(=O)[C@H]23)OCO4)cc(OC)c1O [ETP, etoposide] | 127.50 ± 3.53 | 6.5 ± 2.54 | > 200 | – | – | – | – | – | – | –
CC[C@]1(O)C[C@@H]2CN(CCc3c([nH]c4ccccc34)[C@@](C(=O)OC)(c3cc4c(cc3OC)N(C)[C@H]3[C@@](O)(C(=O)OC)[C@H](OC(C)=O)[C@]5(CC)C=CCN6CC[C@]43[C@@H]65)C2)C1 [Vinblastine (VBL), Vinblastine] | – | – | – | decrease | increase | 36.110 ± 2.970 | 0.200 ± 0.010 | decrease | increase | IC50 ([2]; SJRH30, 72 hours, MTT, read-out: IC50): 0.191 ± 0.01 µg/mL; IC90 ([2]; SJRH30, 72 hours, MTT, read-out: IC90): > 200 µg/mL; weight gain of xenografts / overall weight loss ([3]; mouse, in vivo): absence of any overall weight loss; tumor growth rate ([3]; vs saline control, VBL 2 mg/kg intraperitoneally, CA 10 mg/kg in drinking water, p<0.001 by ANOVA): significantly inhibited; IC50 ([4]; RD, 72 hours, MTT, read-out: IC50): 0.01 ± 0.002 µg/mL; IC90 ([4]; RD, 72 hours, MTT, read-out: IC90): > 200 µg/mL
O=P1(N(CCCl)CCCl)NCCCO1 (centres unmarked) [Cyclophosphamide (CP), Cyclophosphamide] | – | – | – | decrease | increase | >200 | >200 | decrease | increase | cell death ([2]; 200 μg/ml dose, aRMS cells): 45%; IC50 ([2]; SJRH30, 72 h): > 200 µg/mL; IC90 ([2]; SJRH30, 72 h): > 200 µg/mL; IC50 ([4]; 72 h): 172 ± 8.53 µg/mL; IC90 ([4]; 72 h): > 200 µg/mL
CCc1c2c(nc3ccc(OC(=O)N4CCC(N5CCCCC5)CC4)cc13)-c1cc3c(c(=O)n1C2)COC(=O)[C@]3(O)CC [IR, irinotecan] | – | – | – | – | – | – | – | – | – | tumor growth rate [5]: significantly inhibited
Cn1nnc2c(C(N)=O)ncn2c1=O [TMZ, temozolomide] | >200 | 176 ± 10.5 | > 200 | – | – | – | – | – | – | –
